Our source for the IC50 values is patent US8580786B2, “Triazine derivatives and their therapeutical applications” (Nant Holdings IP, LLC, priority 2006, dated 2013).

This experiment concerns MX-1 (human breast carcinoma) cells. As to the kind of experiment: Cytotoxicity assay (Promega CellTiter Blue Cell Viability Assay), in vitro growth inhibition. It counts as cell-based. The following applies: MX1, MX-1 cells, 72 hrs exposure to compound, CellTiter Blue fluorescence readout, read-out: IC50 (μM), cytotoxicity of triazine derivatives. On the procedure:
A cytotoxicity assay was quantitated using the Promega CellTiter Blue Cell Viability Assay. Briefly, cells (5000 cells/well) were plated onto 96-well microtiter plates in RPMI 1640 medium supplemented with 10% FBS and incubated at 37° C. in a humidified 5% CO2 atmosphere. After 24 hrs., cells were exposed to various concentrations of compound in DMSO and cultured for another 72 hrs. 100 ul of media were removed and 20 ul of Promega CellTiter Blue reagent were added to each well and shaken to mix. After 4 hours of incubation at 37° C. in a humidified 5% CO2 atmosphere, the plates were read at 544 ex/620 em. The fluorescence produced is proportional to the number of viable cells. After plotting fluorescence produced against drug concentration, the IC50 was calculated as the […] of the resulting non-linear regression.
Background: The colour change of resazurin is a common sign of viable cells or microbes.
Consider `Cc1nc(Nc2ncc(C(=O)Nc3c(C)cccc3Cl)s2)nc(N2CCN(c3ccncc3)CC2)n1` [Compound 6], for which the IC50 is 2.6 µM.

On to `Cc1cccc(Cl)c1NC(=O)c1cnc(Nc2nc(N3CCN(c4ccncc4)CC3)nc(N3CCN(c4ccncc4)CC3)n2)s1` [Compound 14], for which the IC50 stood at 131 µM.

Regarding `Cc1nc(Nc2ccc(Oc3ccc(Cl)cc3)cc2)nc(N2CCN(c3ccncc3)CC2)n1` [Compound 11], the IC50 stood at 1.4 µM.

Turning to `Cc1nc(Nc2ncc(C(=O)Nc3c(C)cccc3Cl)s2)nc(N2CCN(CCO)CC2)n1` [Compound 5], the 50% inhibitory concentration (IC50) worked out at 16 µM.

As for `Cc1nc(Cl)nc(Nc2ncc(C(=O)Nc3c(C)cccc3Cl)s2)n1` [Compound 4], the IC50 turned out to be 12.2 µM.

Consider `Cc1nc(Nc2ncc(C(=O)Nc3c(C)cccc3Cl)s2)nc(N2CCN(C)CC2)n1` [Compound 7], for which the IC50 turned out to be 38.7 µM.

For `Cc1nc(Nc2ccc(Oc3ccc(Cl)cc3)cc2)nc(N2CCN(CCO)CC2)n1` [Compound 10], the concentration for half-maximal inhibition (IC50) was found to be 14.1 µM.

As to `Cc1nc(Cl)nc(Nc2ccc(Oc3ccc(Cl)cc3)cc2)n1` [Compound 9], the IC50 was 19.1 µM.

Turning to `Cc1cccc(Cl)c1NC(=O)c1cnc(Nc2nc(Cl)nc(N3CCN(CCO)CC3)n2)s1` [Compound 13], the IC50 worked out at 171 µM.

As for `Cc1nc(Nc2ncc(C(=O)Nc3c(C)cccc3Cl)s2)nc(N2CCOCC2)n1` [Compound 8], the IC50 worked out at 58.1 µM.

As for `Cc1cccc(Cl)c1NC(=O)c1cnc(Nc2nc(Cl)nc(Nc3cnc(C(=O)Nc4c(C)cccc4Cl)s3)n2)s1` [Compound 12], the IC50 turned out to be 237 µM.

Usually IC50 stands for the midpoint of a concentration-inhibition curve.
